Test results reported in patent publication US20220380385A1, “PYRIMIDINE FIVE-MEMBERED NITROGEN HETEROCYCLIC DERIVATIVE, PREPARATION METHOD THEREOF AND PHARMACEUTICAL USE THEREOF” (TUOJIE BIOTECH(SHANGHAI) CO., LTD., priority 2019, published 2022).

Assays:
[1] = In vivo pharmacokinetics in rats (gavage); set-up: species or system SD rats; settings: original drug, rat, 5 mpk
Protocol: Rats were used as the test animals. The plasma drug concentration at different times after the rats were given the compounds of the invention by gavage was determined by using the LC/MS/MS method. The in vivo pharmacokinetic behavior of the compounds of the present invention in rats was studied, and pharmacokinetic characteristics thereof were evaluated.
Test animals: 3 healthy, 6-8 weeks old male SD rats in each group
A certain amount of drug was weighed, and 0.5% by mass of hypromellose, 0.1% by volume of Tween 80 and 99.4% by volume of water were added thereto to formulate a white suspension at 1 mg/mL.
SD rats were fasted overnight, then the drug was administered by gavage. The dosage of reference 1 was 7.5 mg/kg, and the dosage of Example 1 was 5 mg/kg.
Rats were administered the compounds of the present invention by gavage. At 0.25, 0.5, 1, 2, 4, 8 and 24 hours after administration, 0.2 mL of blood was collected from the jugular vein and placed in a test tube containing EDTA-K2. The tube was centrifuged at 4° C., 4000 rpm for 5 minutes to separate the plasma, which was stored at −75° C.
Determination of the content of the test compounds in rat plasma after administration of different concentrations of drugs by gavage: 50 μL of rat plasma at each time after administration was taken, and 200 μL of a solution of the internal standard dexamethasone in acetonitrile (50 ng/mL). The mixture was mixed by vortexing for 30 seconds, centrifuged at 4° C., 4700 rpm for 15 minutes. The supernatant of the plasma samples were collected and diluted three times with water, and 2.0 μL was taken for the LC/MS/MS analysis.

CYP1A2 = biological target: T1, CYP1A2 (Homo sapiens, UniProt P05177); experiment: CYP inhibition in mixed human liver microsomes, CYP1A2 (phenacetin); type: in vitro ADME
T1 construct: Mixed human liver microsomes from 150 donors; tissue Corning 452117; host or cells: pooled human liver microsomes (150 donors)
T1 sequence (P05177 1-516): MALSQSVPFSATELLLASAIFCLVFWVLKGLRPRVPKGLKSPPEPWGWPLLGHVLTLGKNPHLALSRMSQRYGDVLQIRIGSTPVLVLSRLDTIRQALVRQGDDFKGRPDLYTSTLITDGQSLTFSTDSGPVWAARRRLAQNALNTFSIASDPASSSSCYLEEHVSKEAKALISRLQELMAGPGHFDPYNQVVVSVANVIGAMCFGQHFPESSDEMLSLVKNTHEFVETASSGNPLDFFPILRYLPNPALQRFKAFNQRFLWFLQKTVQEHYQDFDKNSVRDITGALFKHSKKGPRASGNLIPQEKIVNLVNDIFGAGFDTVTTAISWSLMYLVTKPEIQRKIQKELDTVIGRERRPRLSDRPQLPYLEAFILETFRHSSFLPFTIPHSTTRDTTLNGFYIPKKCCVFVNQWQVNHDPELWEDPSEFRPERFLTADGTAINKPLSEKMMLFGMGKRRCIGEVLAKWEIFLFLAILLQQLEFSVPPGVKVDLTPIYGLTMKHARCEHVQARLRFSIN
Protocol: (§1) Mixed human liver microsomes from 150 donors (purchased from Corning, catalog number 452117) were used to evaluate the representative substrate metabolic responses of the five main human CYP subtypes (CYP1A2, CYP2C9, CYP2C19, CYP2D6 and CYP3A4/5). The influence of different concentrations of test compounds on the metabolic responses of phenacetin (CYP1A2), diclofenac sodium (CYP2C9), S-mephenytoin (CYP2C19), bufurolol hydrochloride (2D6) and midazolam (CYP3A4/5) was determined by liquid chromatography tandem mass spectrometry (LC/MS/MS).
(§2) 200 μL of the reaction system (100 mmol/L phosphate buffer, pH 7.4, containing 0.3% DMSO, 0.6% acetonitrile and 0.1% methanol by volume respectively) with 30 µM phenacetin, 10 μM diclofenac sodium, 35 μM S-mephenytoin, 5 μM bufurolol hydrochloride, 3 μM midazolam, 1 mM NADPH, test compound (at a concentration of 0.1, 0.3, 1, 3, 10 and 30 μmol/L respectively) or positive compound or blank control and mixed human liver microsomes (0.2 mg/mL) was incubated at 37° C. for 5 minutes. […]
(§3) The peak area was calculated based on the chromatograms. The residual activity ratio (%) was calculated using the following equation: […]
(§4) The CYP median inhibitory concentration (IC50) was calculated by Excel XLfit 5.3.1.3.

CYP2C19 = biological target: T2, CYP2C19 (Homo sapiens, UniProt P33261); experiment: CYP inhibition in mixed human liver microsomes, CYP2C19 (S-mephenytoin); type: in vitro ADME
T2 construct: Mixed human liver microsomes from 150 donors; tissue Corning 452117; host or cells: pooled human liver microsomes (150 donors)
Protocol: as §1, §2, §3, §4

[2] = In vitro metabolic stability in rat liver microsomes; type: in vitro ADME; settings: rat liver microsomes (male Wistar Han), NADPH, 37° C.; read-out: Intrinsic clearance rate
Protocol: The concentration of the compound in the reaction system was determined by LC/MS/MS, so as to calculate the intrinsic clearance rate of the test compound and to evaluate the in vitro metabolic stability in rat liver microsomes.
222.5 μL, 1.1236 mg/mL of a mixed solution of rat liver microsomes (male Wistar Han strain, purchased from Corning, catalog number 452511) and 25 μL, 10 mM of NADPH were added into the incubation plate. The mixture was mixed by vortexing for 10 seconds. The plate was incubated in a water bath at 37° C. for 8 minutes. 2.5 μL, 100 μM of the test compound or positive control was added to the incubation plate to start the reaction. The mixture was mixed by vortexing for 12 seconds, and incubated in a water bath at 37° C. The reaction was stopped by transferring 20 μL of the incubation system to a stop plate containing 100 μL of cold stop solution at 0.5, 5, 10, 15, 20 and 30 minutes. The mixture was mixed by vortexing for 2 minutes. The stop plate was centrifuged at 4000 rpm for 20 minutes, then left to stand at 4° C. for 30 minutes, and then centrifuged at 4000 rpm for 20 minutes. 40 μL of the supernatant of each compound was transferred to a 96-well injection plate, and 160 μL of pure water was added to dilute the samples.
The obtained samples were quantified by ion chromatogram, and the residual rate was calculated according to the peak area of the test compounds or positive control. The slope k was determined by linear regression of the natural logarithm of the residual rate to the incubation time by using Microsoft Excel.
The in vitro half-life (in vitro t1/2) was calculated from the slope: in vitro t1/2=−(0.693/k)
The following equation was used to convert in vitro half-life into intrinsic clearance rate (in vitro CLint, μL/min/mg protein):
in vitro CLint=(0.693/t1/2)×(incubation volume (L)/protein amount (mg))

T2 sequence (P33261 whole entry): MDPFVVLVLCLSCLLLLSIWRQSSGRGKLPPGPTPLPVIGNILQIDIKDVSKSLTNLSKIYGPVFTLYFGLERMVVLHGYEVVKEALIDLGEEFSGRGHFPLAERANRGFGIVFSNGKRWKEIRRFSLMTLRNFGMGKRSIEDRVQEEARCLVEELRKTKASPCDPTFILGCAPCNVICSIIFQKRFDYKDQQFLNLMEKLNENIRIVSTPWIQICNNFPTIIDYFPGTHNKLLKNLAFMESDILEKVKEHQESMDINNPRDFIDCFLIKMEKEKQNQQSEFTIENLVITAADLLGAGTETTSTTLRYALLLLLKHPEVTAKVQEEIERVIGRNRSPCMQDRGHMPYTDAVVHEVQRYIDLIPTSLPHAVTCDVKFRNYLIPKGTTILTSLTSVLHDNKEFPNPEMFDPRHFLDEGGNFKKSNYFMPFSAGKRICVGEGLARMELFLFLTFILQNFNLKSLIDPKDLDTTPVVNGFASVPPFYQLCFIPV

For `[2H]C([2H])([2H])Nc1nccc(Sc2c(C)nc(N3CCC4(CC3)Cc3ncccc3[C@H]4N)n3ccnc23)c1Cl` [Example 3, (S)-1′-(8-((3-Chloro-2-((methyl-d3)amino)pyridin-4-yl)thio)-7-methylimidazo[1,2-c]pyrimidin-5-yl)-5,7-dihydrospiro[cyclopenta[b]pyridine-6,4′-piperidin]-5-amine], the AUC ([1]; male, SD, plasma, po, 5 mg/kg, read-out: Area under curve AUC) was 3820 ng·h/mL, the Cmax ([1]; male, SD, plasma, po, 5 mg/kg, read-out: Maximum blood conc. Cmax) was 445 ng/mL and the “Area under curve of unit dose AUC/D” value [1] was 764 ng*h/mL per mg/kg. For the same compound, the IC50 (CYP1A2) was 14.7 µM, the IC50 (CYP2C19) was over 20 µM and the microsomal CLint at 1 µM [2] was under 3 µL/min/mg.
